# Measured values as given in PMC8477192, “An ionic lock and a hydrophobic zipper mediate the coupling between an insect pheromone receptor BmOR3 and downstream effectors” (The Journal of Biological Chemistry, 2021).
# Assays:
# [1] = target: T1, BmOR3–BmOrco (Bombyx mori, UniProt Q5FBE0); assay: BmOR3–BmOrco intermolecular BRET assay; type: cell-based; conditions: HEK293 cells; 5 min stimulation; read-out: EC50 of BRET signal increase between Rluc-BmOR3 and YFP-BmOrco
# T1 sequence (Q5FBE0 1-439): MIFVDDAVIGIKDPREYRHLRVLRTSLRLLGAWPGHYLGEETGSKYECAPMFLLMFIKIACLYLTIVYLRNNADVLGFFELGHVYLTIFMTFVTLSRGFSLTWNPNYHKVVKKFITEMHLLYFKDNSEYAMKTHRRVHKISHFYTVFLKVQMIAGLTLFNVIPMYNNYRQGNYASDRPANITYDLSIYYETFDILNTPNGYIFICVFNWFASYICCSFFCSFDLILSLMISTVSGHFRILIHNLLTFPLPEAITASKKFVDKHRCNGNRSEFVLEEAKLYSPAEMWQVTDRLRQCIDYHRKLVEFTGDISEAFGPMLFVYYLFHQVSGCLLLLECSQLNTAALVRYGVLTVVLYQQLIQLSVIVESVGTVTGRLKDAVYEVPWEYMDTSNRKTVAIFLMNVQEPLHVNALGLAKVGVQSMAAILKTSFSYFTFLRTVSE
# T1 sequence (Q7YT34 1-472 partner): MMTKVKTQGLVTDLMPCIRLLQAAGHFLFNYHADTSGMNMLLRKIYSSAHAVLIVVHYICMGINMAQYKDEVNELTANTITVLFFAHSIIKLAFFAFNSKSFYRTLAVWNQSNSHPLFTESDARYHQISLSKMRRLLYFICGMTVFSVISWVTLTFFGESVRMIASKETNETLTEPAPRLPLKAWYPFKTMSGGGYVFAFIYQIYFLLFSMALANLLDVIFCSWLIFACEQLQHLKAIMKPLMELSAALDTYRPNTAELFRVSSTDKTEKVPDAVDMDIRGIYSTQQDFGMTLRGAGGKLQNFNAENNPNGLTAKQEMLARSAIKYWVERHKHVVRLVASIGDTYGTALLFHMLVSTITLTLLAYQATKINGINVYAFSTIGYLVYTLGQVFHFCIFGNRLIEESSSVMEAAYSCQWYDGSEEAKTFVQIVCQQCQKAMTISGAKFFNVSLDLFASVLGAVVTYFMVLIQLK
# Protocol: HEK293 cells were cotransfected with the N-terminal Rluc-tagged WT BmOR3 together with N-terminal YFP-fused BmOrco plasmids or their mutants. Twenty-four hours after transfection, cells were distributed into a 96-well microplate. After another 24 h, the cells were stimulated with different concentrations of bombykal for 5 min. BRET between RLuc and YFP was measured using a Mithras LB 940 multimode reader after the addition of the RLuc substrate coelenterazine h (5 μM). The BRET signal was calculated as the ratio of emission of YFP (530 nm) to RLuc (485 nm). For the saturation BRET between Rluc-BmOrco and YFP-BmOR3, HEK293 cells were transfected with a fixed amount of Rluc-BmOrco and increasing amounts of YFP-BmOR3. The BRET signal between RLuc and YFP was directly measured after the addition of the substrate coelenterazine h (5 μM).
# [2] = system: BmOR3 and BmOrco; assay: CalfluxVTN Ca2+ assay (BRET-based calcium sensor); type: cell-based, Bombyx mori
# Protocol: HEK293 cells were cotransfected with plasmids encoding WT BmOR3 and BmOrco or their mutants, or AT1R together with CalfluxVTN probe. 24 h after transfection, cells were redistributed into 96-well flat-bottomed microplates. After another 24 h, cells were incubated with conventional buffer with Ca^2+ (135 mM NaCl, 5 mM KCl, 1 mM CaCl2, 5 mM D-glucose, 10 mM Hepes; pH = 7.4) or with Ca^2+-free buffer (135 mM NaCl, 5 mM KCl, 1 mM EGTA, 5 mM D-glucose, 10 mM Hepes; pH = 7.4), and stimulated with different concentrations of Bombykal (or AngII). The BRET ratio between Venus and Nluc was measured before (baseline) and after the addition of the Nluc substrate furimazine (5 μM) using a Mithras LB 940 multimode reader (Berthold Technologies). The BRET signal was calculated as ratio of emission of Venus (530 nm) to Nluc (460 nm). The baseline value was subtracted from the bombykal-stimulated BRET signal to obtain the ΔBRET value.
# [3] = target: BmOR3 (Bombyx mori, UniProt Q5FBE0); assay: Arrestin-kinase BRET assay; type: cell-based; conditions: HEK293 cells transfected with BmOR3, BmArr-Rluc and YFP-tagged kinases; 1 μM, 10 min
# Protocol: Twenty-four hours after transfection, cells were distributed into a 96-well microplate. After another 24 h, the cells were stimulated with 1 μM bombykal (for BmOR3-transfected cells) or 1 μM AngII for 10 min (for AT1R-transfected cells). BRET between RLuc and YFP was measured using a Mithras LB 940 multimode reader after the addition of the RLuc substrate coelenterazine h (5 μM). The BRET signal was calculated as the ratio of emission of YFP (530 nm) to RLuc (485 nm).
compound,measurement,setting,value
CCC/C=C\C=C\CCCCCCCCC=O [bombykal],EC50,[1],0.036 ± 0.00389 µM
same,Ca2+ signal through BmOR3–BmOrco in the Ca2+-free incubating buffer,"[2]; 1 μM, Ca2+-free buffer versus Ca-containing buffer",completely abolished
same,Ca2+ response through BmOR3/BmOrco relative to that induced by angiotensin II through activating AT1R,"[2]; 1 μM, CalfluxVTN-expressing HEK293 cells, receptors expressed at similar levels",approximately 70%
same,calcium influx in response to stimulation,"[2]; HEK293 cells coexpressing BmOR3 and BmOrco, not with BmOR3 or BmOrco alone",elicited robust calcium influx
same,"association of β-arrestin with ERK, SRC, and AKT",[3],increased association
